Experimental data published in patent US12594344B2, “Production of exosomes and uses thereof” (CHINA MEDICAL UNIVERSITY, priority 2021, dated 2026).

What was measured:
[1] = system: MDA-MB-231 cells; experiment: Cytotoxicity of exosomes loaded with miRNA and DOX; type: cell-based; conditions: MDA-MB-231, after 24 h and 48 h
Experimental: The cell cultured on 96-well with Exo/CARExo for the collection of different time-points, the culture medium was collected and washed with PBS solution to remove any residual medium. Tetrazolium dye MTT (3-(4,5-dimethylthiazol-2-yl)-2,5-diphenyltetrazolium bromide) (Sigma-Aldrich) was mixed fresh medium with ratio of 1:9 and performed to assess for cell viability, which worked by acting on the respiratory chain. After 3 h of reaction, the MTT agent was removed and DMSO was added and left aside for 20 min to dissolve the formazan crystals and redistributed evenly into a 96-well. Absorbance was quantified by measuring at a wavelength of 570 nm to assess for cell viability.
Then, the present invention further increased the test group to six groups: Ctl, Drug, miR, CARExo, CARExo-Drug and CARExo-miR-Drug, to distinguish the validation of cancer cell killing efficacy (FIG. 10). […] Whereas CARExo or Drug only the effect was about 50%. It could be seen that the cocktail of exosomes can effectively and quickly kill cancer cells in the first time.

[2] = molecular target: T1, YAP protein (Homo sapiens, UniProt P46937); experiment: YAP inhibitor treatment of HEK293T-laden auxetic scaffold under cyclic tensile stimulation; type: cell-based
T1 construct: endogenous in cells; host or cells: HEK293T
T1 sequence (P46937 whole entry): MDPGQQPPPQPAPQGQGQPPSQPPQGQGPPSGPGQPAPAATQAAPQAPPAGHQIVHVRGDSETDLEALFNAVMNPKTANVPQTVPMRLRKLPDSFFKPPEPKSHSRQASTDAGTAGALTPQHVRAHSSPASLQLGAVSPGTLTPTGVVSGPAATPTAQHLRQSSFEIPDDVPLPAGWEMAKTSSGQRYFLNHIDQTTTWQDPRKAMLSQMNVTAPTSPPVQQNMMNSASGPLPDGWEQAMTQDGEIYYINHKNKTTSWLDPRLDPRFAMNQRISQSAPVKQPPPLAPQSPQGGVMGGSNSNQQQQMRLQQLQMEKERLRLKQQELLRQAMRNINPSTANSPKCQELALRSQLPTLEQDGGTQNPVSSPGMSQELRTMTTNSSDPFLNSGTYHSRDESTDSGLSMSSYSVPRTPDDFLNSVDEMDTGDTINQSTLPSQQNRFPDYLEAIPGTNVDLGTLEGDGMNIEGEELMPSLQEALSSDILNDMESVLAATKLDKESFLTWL
Text: In the present invention, hydrogels with an auxetic structure were fabricated through a template moulding process. Considering that the cell-laden hydrogels with an auxetic structure should be compatible with a tensile bioreactor, three components were used to produce the construct: a Pluronic F-127 solution, GelMa, and cell-laden FGelMa. A positive mould was designed and printed using the BioX bioprinter (Cellink, Sweden) with the Pluronic F-127 (Sigma-Aldrich) solution at a concentration of 30 wt % in distilled water. […] For the mould printing, the stereolithography (STL) model was designed and developed using SolidWorks. The STL file was then converted into a g-code file, which was used to determine the movements and printing paths of the bioprinter, using sliver software. After housing the fugitive ink in a syringe barrel equipped with a luer-locked nozzle with an inner diameter of 150 μm, the fugitive ink was deposited on a glass slide by applying a pneumatic pressure at 170 kPa to form a filament with diameter of approximately 250 μm, using a syringe moving speed of 25 mm/s. The fugitive mould of the auxetic construct was fabricated layer-by-layer (150 μm per layer) until the final thickness of the construct reached 2.1 mm. […]

Compound	cell killing effect [1]	cell morphology [2]	secretion of exosomes relative to the cyclic tensile stimulation group [2]
COc1cccc2c1C(=O)c1c(O)c3c(c(O)c1C2=O)C[C@@](O)(C(=O)CO)C[C@@H]3O[C@H]1C[C@H](N)[C@H](O)[C@H](C)O1 [Drug, doxorubicin]	about 50%		
Verteporfin		could not self-assemble to form three-dimensional spheroids	5%
